Starred links: 1 amine or outer side, 2 acyl side, 3 side chain; linkers in the order of their positions; H or OH if unused. Residues, ends and D or L forms follow the SMILES beside them. CO = O=C([*:1])[*:2]
tested on: SARS-CoV-2-S pseudotyped particles (PP); assay type: cell-based; conditions: not given

SMILES | SARS-2 PP Efficacy
CCOC(=O)c1ccc(OC(=O)CCCCCNC(=N)N)cc1 [NCGC00025297, Gabexate] | 0%
CC(C)[C@H](NC(=O)[C@H](CCCNC(=N)N)NC(=O)N[C@@H](Cc1ccccc1)C(=O)O)C(=O)N[C@H](C=O)CCCNC(=N)N [NCGC00390338, Antipain] ({Phe-CO}-Arg-Val-Arg-aldehyde) | about 60%
CN(C)C(=O)COC(=O)Cc1ccc(OC(=O)c2ccc(NC(=N)N)cc2)cc1 [NCGC00167526, Camostat] | 100%
N=C(N)c1ccc2nc(-c3cc(CC(=O)N[C@@H](CC(=O)O)C(=O)O)cc(-c4cc(S(N)(=O)=O)ccc4O)c3O)[nH]c2c1 [NCGC00387860, PCI-27483] | about 60%
N=C(N)c1ccc2cc(OC(=O)c3ccc(N=C(N)N)cc3)ccc2c1 [NCGC00160398, Nafamostat] | 100%
COC(=O)[C@H](Cc1cccc(C(=N)N)c1)[C@@H](C)NC(=O)c1ccc(-c2cc[n+]([O-])cc2)cc1 [NCGC00378763, Otamixaban] | 50%

same assay, conditions: listed as otamixaban

SMILES | SARS-2 PP Efficacy
COC(=O)[C@H](Cc1cccc(C(=N)N)c1)[C@@H](C)NC(=O)c1ccc(-c2cc[n+]([O-])cc2)cc1 [NCGC00378763, Otamixaban] | about 50%

Source: PMC7781311 (bioRxiv, 2021)
